Measured values taken from publication PMC4079326 (Journal of Medicinal Chemistry, 2014).
Values belong to the molecule of their own block, whether it stands above or below them.

Key:
[1] = molecular target: TEM-1 (Escherichia coli, UniProt P62593); format: biochemical
[2] = molecular target: T1, CTX-M-9 (Escherichia coli, UniProt Q9L5C8); format: biochemical; details: class A
[3] = data not shown
[4] = molecular target: AmpC (Escherichia coli, UniProt P00811); format: biochemical
[5] = molecular target: TEM-30 R244S (Escherichia coli, UniProt P62593, R241S); format: biochemical; details: 4 vs 5 on TEM-30
[6] = molecular target: T1, CTX-M-9; details: read-out: affinity toward CTX-M-9 (Ki); cited from earlier work

gain in affinity vs TEM-1 with respect to starting lead 1 ([1]; class A): 1250 fold
improvement of binding energy vs TEM-1 ([1]; moving from 1 to 5): 2.8 kcal/mol
gain in affinity vs CTX with respect to starting lead 1 [2]: 1250 fold
stability in microbiology assay conditions over time [3]: unstable
SMILES: O=C(O)/C=C/c1c(B(O)O)sc2ccccc12 [Compound 5, 3-(2-carboxyvinyl)benzo(b)thiophene-2-boronic acid]

SMILES: CC(=O)/C=C/c1c(B(O)O)sc2ccccc12 [Compound 4]
times less active vs AmpC [4]: 8 times
change of binding vs TEM-30 with respect to compound 5 [5]: less than 1 fold
times less active vs class A [1]: 125 times

SMILES: O=C(Cc1cccs1)N[C@H](B(O)O)c1cccc(C(=O)O)c1 [SMS2, (1R)-1-(2-thienylacetylamino)-1-(3-carboxyphenyl)methylboronic acid]
Ki [6]: 578 nM
